Laboratory results: US20030175769A1, “Reagents for improved PCR” (priority 2001, published 2003)

Tests used:
[1] = system: plasmid containing the complete DPD cDNA; experiment: Real time PCR signal intensity, FRET-HybProbe formate; assay type: biochemical; conditions: 0,1 g/μl compound
Text: For this experiment, the primer mix according to example 3 was used. Various amounts of plasmid containing the complete DPD cDNA ranging from 0,4 to 40 fg were amplified with the primer mix by means of PCR under the conditions of example 3 in the presence or absence of […] compound III according to example 2.
For Real Time PCR detection, FRET-hybridization probes from the LightCycler Dihydropyrimidin-Dehydrogenase (DPD) mRNA quantification kit (Roche Molecular Biochemicals, cat. No. 3136957) were used in concentrations according to the manufacturer's instructions.

[2] = system: PCR amplification mixture; experiment: Hot start effect when added to a PCR amplification mixture; assay type: biochemical

In the case of `O=C(O)C1=C/C(=C(/c2ccc(O)c(C(=O)O)c2)c2cc(Cc3ccc(O)c(C(=O)O)c3)c(O)c(C(=O)O)c2)C=CC1=O` [Compound I], the “specific amplification signal (FIG. 3a)” value ([1]; 0,4 fg template DNA) is reported as “can only be obtained in presence of the additive”, the “specific signaling, cycle number of detection (FIG. 3b,c)” value ([1]; higher template concentrations (4 fg, 40 fg)) is reported as “detected at earlier cycle numbers” and the hot start effect [2] is reported as “extensive hot start effect”.
